Paper PMC9607427, “Novel 7-Chloro-(4-thioalkylquinoline) Derivatives: Synthesis and Antiproliferative Activity through Inducing Apoptosis and DNA/RNA Damage” (Pharmaceuticals, 2022)
Where two headings read alike, the source gives them in different places.

How the values were obtained:
[1] = tested on: A549 (lung adenocarcinoma); assay: Cytotoxic MTS assay, A549; type: cell-based, human
Experimental: (§1) In vitro cytotoxic activity of final compounds 5–82 was evaluated after 3 days of incubation against eight cell lines derived from human solid tumors including lung (A549 cells) and colon (HCT116 and HCT116p53−/−) carcinomas, as well as leukemia cell lines (CCRF-CEM, CEM-DNR, K562, and K562-TAX) and osteosarcoma (U2OS cells). For comparison, non-malignant BJ and MRC-5 fibroblasts, and BJLD and MCR-5LD fibroblasts doxorubicin-resistant cell lines were used. Concentrations inhibiting the cell growth by 50% (IC50) were determined using a quantitative metabolic staining with 3-(4,5-dimethylthiazol-2yl)-5-(3-carboxymethoxyphenyl)-2-(4-sulfophenyl)-2H-tetrazolium (MTS) and are summarized in (Table 3).
(§2) Cytotoxic activity was determined by MTS assay following 72 h of incubation. IC50 is the lowest concentration that kills 50% of cells. The standard deviation in cytotoxicity assays is typically up to 20% of the average value. […] The tested cell lines: A549 (lung adenocarcinoma), BJ (noncancerous human fibroblasts from foreskin), BJLD (human lung fibroblast doxorubicin-resistant), CCRF-CEM (childhood T cell acute lymphoblastic leukemia), a daunorubicin-resistant subline of CCRF-CEM cells (CEM-DNR bulk), HCT116 (colorectal carcinoma), HCT116p53−/− (HCT116 with deleted p53 gene), K562 (chronic myeloid leukemia), K562-TAX (chronic myeloid leukemia paclitaxel-resistant subline), MRC-5 (noncancerous human lung fibroblasts), MRC-5LD (noncancerous human lung fibroblasts doxorubicin-resistant), and U2OS (osteosarcoma).
(§3) All cell lines were purchased from the American Tissue Culture Collection (ATCC). The A549 cell line is lung adenocarcinoma. MRC-5 and BJ cell lines were used as a non-tumor control and represent human fibroblasts. (MRC-5 LD and BJLD) are doxorubicin-resistant human lung fibroblast cell lines. The CCRF-CEM line is derived from T lymphoblastic leukemia, evincing high chemosensitivity, whereas K562 represent cells from an […] patient sample with bcr-abl translocation. The daunorubicin-resistant subline of CCRF-CEM cells (CEM-DNR bulk) and paclitaxel-resistant subline K562-TAX were selected in our laboratory by the cultivation of maternal cell lines in increasing concentrations of daunorubicin or paclitaxel, respectively. The CEM-DNR bulk cells overexpress MRP-1 and P-glycoprotein protein, whereas K562-TAX cells overexpress P-glycoprotein only. Both proteins belong to the family of ABC transporters and are involved in the primary and/or acquired multidrug-resistance phenomenon. The U2OS cell line is derived from osteosarcoma, HCT116 is a colorectal tumor cell line and its p53 gene knock-down counterpart (HCT116p53−/−, Horizon Discovery Ltd., Cambridge, UK) is a model of human cancers with p53 mutation frequently associated with poor prognosis. The cells were maintained in nunc/corning 80 cm^2 plastic tissue culture flasks and cultured in a cell culture medium according to ATCC or Horizon recommendations (DMEM/RPMI 1640 with 5 g/L glucose, 2 mM glutamine, 100 U/mL penicillin, […], 10% fetal calf serum, and NaHCO3).
(§4) The activity of compounds was determined using a standard 3-(4,5-dimethylthiazol-2-yl)-5-(3-carboxymethoxyphenyl)-2-(4-sulfophenyl)-2H-tetrazolium (MTS) and it was performed at the Institute of Molecular and Translational Medicine by a robotic platform (High-ResBiosolutions). Cell suspensions were prepared and diluted according to the particular cell type and the expected target cell density (25,000–35,000 cells/mL based on cell growth characteristics). Cells were added by automatic pipettor (30 µL) into 384-well microtiter plates. All tested compounds were dissolved in 100% DMSO and four-fold dilutions of the intended test concentration were added in 0.15 µL aliquots at time zero to the microtiter plate wells by the echo acoustic non-contact liquid handler Echo550 (Labcyte). […]

[2] = tested on: BJ (noncancerous human fibroblasts from foreskin); assay: Cytotoxic MTS assay, BJ; type: cell-based
Experimental: as §1, §2, §3, §4

[3] = tested on: BJLD (human lung fibroblast doxorubicin-resistant); assay: Cytotoxic MTS assay, BJLD; type: cell-based
Experimental: as §1, §2, §3, §4

[4] = tested on: CCRF-CEM (childhood T cell acute lymphoblastic leukemia); assay: Cytotoxic MTS assay, CCRF-CEM; type: cell-based, human
Experimental: as §1, §2, §3, §4

[5] = tested on: CEM-DNR bulk (daunorubicin-resistant subline of CCRF-CEM cells); assay: Cytotoxic MTS assay, CEM-DNR; type: cell-based, human
Experimental: as §1, §2, §3, §4

[6] = tested on: HCT116 (colorectal carcinoma); assay: Cytotoxic MTS assay, HCT116; type: cell-based, human
Experimental: as §1, §2, §3, §4

[7] = tested on: HCT116p53−/− (HCT116 with deleted p53 gene); assay: Cytotoxic MTS assay, HCT116p53−/−; type: cell-based, human
Experimental: as §1, §2, §3, §4

[8] = tested on: K562 (chronic myeloid leukemia); assay: Cytotoxic MTS assay, K562; type: cell-based, human
Experimental: as §1, §2, §3, §4

[9] = tested on: K562-TAX (chronic myeloid leukemia paclitaxel-resistant subline); assay: Cytotoxic MTS assay, K562-TAX; type: cell-based, human
Experimental: as §1, §2, §3, §4

[10] = tested on: MRC-5 (noncancerous human lung fibroblasts); assay: Cytotoxic MTS assay, MRC-5; type: cell-based
Experimental: as §1, §2, §3, §4

[11] = tested on: MRC-5LD (noncancerous human lung fibroblasts doxorubicin-resistant); assay: Cytotoxic MTS assay, MRC-5LD; type: cell-based
Experimental: as §1, §2, §3, §4

U2OS (osteosarcoma) = assay: Cytotoxic MTS assay, U2OS; type: cell-based, human
Experimental: as §1, §2, §3, §4

Cytotoxic MTS assay, BJ = type: cell-based, human; settings: human, BJ cells (noncancerous foreskin fibroblasts); MTS, 72 h of incubation
Experimental: as §1, §2, §3, §4

[12] = Cytotoxic MTS assay, BJLD; type: cell-based, human; settings: human, BJLD cells (fibroblasts, doxorubicin-resistant); MTS, 72 h of incubation
Experimental: as §1, §2, §3, §4

[13] = Cytotoxic MTS assay, MRC-5; type: cell-based, human; settings: human, MRC-5 cells (noncancerous lung fibroblasts); MTS, 72 h of incubation
Experimental: as §1, §2, §3, §4

[14] = Cytotoxic MTS assay, MRC-5LD; type: cell-based, human; settings: human; MTS, 72 h of incubation; read-out: Cytotoxic activity IC50, MRC5-LD
Experimental: as §1, §2, §3, §4

[15] = Homo sapiens, A549, MTS, 72 h of incubation, read-out: Cytotoxic activity IC50, A549
[16] = Homo sapiens, CCRF-CEM, MTS, 72 h of incubation, read-out: Cytotoxic activity IC50, CCRF-CEM
[17] = Homo sapiens, CEM-DNR, MTS, 72 h of incubation, read-out: Cytotoxic activity IC50, CEM-DNR
[18] = Homo sapiens, HCT-116, MTS, 72 h of incubation, read-out: Cytotoxic activity IC50, HCT116
[19] = Homo sapiens, HCT-116, MTS, 72 h of incubation, read-out: Cytotoxic activity IC50, HCT116-p53
[20] = Homo sapiens, K562, MTS, 72 h of incubation, read-out: Cytotoxic activity IC50, K562
[21] = Homo sapiens, K562-Tax, MTS, 72 h of incubation, read-out: Cytotoxic activity IC50, K562-TAX
[22] = Homo sapiens, U2OS, MTS, 72 h of incubation, read-out: Cytotoxic activity IC50, U2OS

| SMILES | IC50 [1] | IC50 [2] | IC50 [3] | IC50 [4] | IC50 [5] | IC50 [6] | IC50 [7] | IC50 [8] | IC50 [1, 15] | IC50 at 72 h (Cytotoxic MTS assay, BJ) | IC50 at 72 h [12] | IC50 [4, 16] | IC50 [5, 17] | IC50 [6, 18] | IC50 [7, 19] | IC50 [8, 20] | IC50 [9, 21] | IC50 at 72 h [13] | IC50 at 72 h [14] | IC50 (U2OS (osteosarcoma); [22]) | further results |
| --- | --- | --- | --- | --- | --- | --- | --- | --- | --- | --- | --- | --- | --- | --- | --- | --- | --- | --- | --- | --- | --- |
| Cc1ccc([N+](=O)[O-])c(C(=O)OCCCS(=O)(=O)c2cc[n+]([O-])c3cc(Cl)ccc23)c1 [Compound 80, 3-[(N-Oxide 7-chloroquinolin-4-yl)sulfonyl]propyl-5-methyl-2-nitrobenzoate] | 6.44 µM | 22.2 µM | 15.9 µM | 1.49 µM | 6.78 µM | 4.61 µM | 6 µM | 6.75 µM | – | – | – | – | – | – | – | – | – | – | – | – | IC50 [9]: 6 µM; IC50 [10]: 20 µM; IC50 [11]: 16.3 µM; IC50 (U2OS (osteosarcoma)): 5.74 µM |
| COc1ccc(OC)c(C(=O)OCCCS(=O)(=O)c2cc[n+]([O-])c3cc(Cl)ccc23)c1 [Compound 75, 3-[(N-Oxide 7-chloroquinolin-4-yl)sulfonyl]propyl-2,5-dimethoxybenzoate] | 7.28 µM | 26.6 µM | 17.8 µM | 1.45 µM | 7.22 µM | 5.37 µM | 6.86 µM | 7.14 µM | – | – | – | – | – | – | – | – | – | – | – | – | IC50 [9]: 9.56 µM; IC50 [10]: 21.5 µM; IC50 [11]: 18.9 µM; IC50 (U2OS (osteosarcoma)): 6.4 µM |
| COc1ccc(C(=O)OCCC[S+]([O-])c2ccnc3cc(Cl)ccc23)cc1 (stereo not drawn) [Compound 53, 3-[(7-Chloroquinolin-4-yl)sulfinyl]propyl-4-methoxybenzoate] | – | – | – | – | – | – | – | – | 23.6 µM | 30 µM | 28.2 µM | 1.31 µM | 8.71 µM | 12.5 µM | 8.51 µM | 13.9 µM | 6.98 µM | 27.9 µM | 22.4 µM | 12.8 µM | – |
| COc1cc(C(=O)OCCC[S+]([O-])c2ccnc3cc(Cl)ccc23)cc(OC)c1OC (stereo not drawn) [Compound 57, 3-[(7-Chloroquinolin-4-yl)sulfinyl]propyl-3,4,5-trimethoxybenzoate] | – | – | – | – | – | – | – | – | 30.5 µM | 33 µM | 31.9 µM | 1.51 µM | 16 µM | 19.3 µM | 14.8 µM | 17.4 µM | 14.6 µM | 29.9 µM | 25.8 µM | 21.3 µM | – |
| O=C(OCCC[S+]([O-])c1ccnc2cc(Cl)ccc12)c1ccc(C(F)(F)F)cc1 (stereo not drawn) [Compound 62, 3-[(7-Chloroquinolin-4-yl)sulfinyl]propyl-4-(trifluoromethyl)benzoate] | – | – | – | – | – | – | – | – | 26.1 µM | 29.9 µM | 30.1 µM | 1.17 µM | 10.5 µM | 15.7 µM | 9.61 µM | 17.6 µM | 9.15 µM | 29.4 µM | 25.9 µM | 14.3 µM | – |
